Test system: oxidoreductase
Assay: Michaelis constants (Dixon and Webb method, Lineweaver-Burke plots)
Assay type: biochemical, Microbacterium SP. (NCIB 12048)
Details: two substrate enzyme; calculated from primary Lineweaver-Burke plots
Method: The Michaelis constants (K^m) for NAD^+ and 1,2-ethanediol were calculated using the method described by Dixon, M and Webb, E.C. ("Enzymes", Longman Group Limited, 1964 pp. 84-86) for two substrate enzymes, based on data from primary plots constructed by the Lineweaver-Burke technique.

Compound | Km
NC(=O)c1ccc[n+]([C@@H]2O[C@H](COP(=O)([O-])OP(=O)(O)OC[C@H]3O[C@@H](n4cnc5c(N)ncnc54)[C@H](O)[C@@H]3O)[C@@H](O)[C@H]2O)c1 [NAD^+, nicotinamide adenenine dinucleotide] | ~330 µM
OCCO [Monoethylene Glycol, 1,2-ethanediol] | ~480 µM
